In ChEMBL document CHEMBL5316291 (J Med Chem, 2023):
Activity calls are given as the source filed them. No cut-off for these calls is given here.

Legend:
[1] = test system: CT26; assay: Antitumor activity against mouse CT26 cells implanted in po dosed BALB/c mouse assessed as increase in CXCL10 levels at 100 mg/kg measured after 14 days by RT-qPCR analysis; format: functional, organism-based; conditions: time 14.0 day
[2] = target: T1, Protein mono-ADP-ribosyltransferase TIPARP (Mus musculus) (UniProt Q8C1B2); assay: Inhibition of PARP7 in mouse CT26 cells assessed as increase in […] levels at 49 to 4000 nmol/L measured after 48 hrs by RT-qPCR analysis; format: cell-based; conditions: dose lower […], dose upper 4000.0 nmol/L
T1 sequence (whole entry): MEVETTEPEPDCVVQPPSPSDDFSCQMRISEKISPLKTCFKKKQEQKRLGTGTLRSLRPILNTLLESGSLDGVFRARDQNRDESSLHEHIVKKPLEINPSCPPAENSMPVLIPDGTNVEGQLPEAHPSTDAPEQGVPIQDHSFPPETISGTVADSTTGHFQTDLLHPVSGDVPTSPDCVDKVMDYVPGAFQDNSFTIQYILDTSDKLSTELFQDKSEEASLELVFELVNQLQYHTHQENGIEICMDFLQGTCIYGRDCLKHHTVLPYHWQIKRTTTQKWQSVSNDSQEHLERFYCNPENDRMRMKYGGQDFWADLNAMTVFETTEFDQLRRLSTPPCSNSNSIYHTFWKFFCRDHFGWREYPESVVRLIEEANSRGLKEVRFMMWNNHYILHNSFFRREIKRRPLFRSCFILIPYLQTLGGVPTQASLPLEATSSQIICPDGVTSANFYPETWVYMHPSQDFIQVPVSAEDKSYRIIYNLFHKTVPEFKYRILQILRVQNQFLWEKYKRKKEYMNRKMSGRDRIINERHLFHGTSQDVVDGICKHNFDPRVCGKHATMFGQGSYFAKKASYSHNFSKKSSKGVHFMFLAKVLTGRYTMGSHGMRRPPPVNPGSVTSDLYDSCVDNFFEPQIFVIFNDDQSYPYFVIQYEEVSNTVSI

[3] = Apparent volume of distribution in ICR mouse at 1 mg/kg, iv measured upto 24 hrs by LC-MS/MS analysis; format: ADME, organism-based; conditions: in vivo, read-out: Vz
[4] = Oral bioavailability in ICR mouse at 10 mg/kg measured upto 24 hrs by LC-MS/MS analysis; format: ADME, organism-based; conditions: in vivo
[5] = test system: CT26; assay: Antitumor activity against mouse CT26 cells implanted in po dosed BALB/c mouse assessed as increase in IFN-beta levels measured after 14 days by RT-qPCR analysis; format: functional, organism-based; conditions: dose 25-100 mg/kg, time 14.0 day
[6] = test system: CT26; assay: Antitumor activity against mouse CT26 cells implanted in po dosed BALB/c mouse assessed as increase in IFN-beta levels at 100 mg/kg measured after 14 days by RT-qPCR analysis; format: functional, organism-based; conditions: time 14.0 day
[7] = Toxicity in BALB/c mouse implanted with mouse CT26 cells assessed as lung damage at 100 mg/kg, po measured for 14 days by hematoxylin and eosin staining based fluorescence microscopic analysis; format: organism-based; conditions: in vivo, 336 h, time 14 day
[8] = test system: CT26; assay: Antitumor activity against mouse CT26 cells implanted in po dosed BALB/c mouse assessed as increase in PARP7 levels at 50 to 100 mg/kg measured after 14 days by RT-qPCR analysis; format: functional, organism-based; conditions: dose 50-100 mg/kg, time 14.0 day
[9] = Clearance in ICR mouse at 10 mg/kg, po measured upto 24 hrs by LC-MS/MS analysis; format: ADME, organism-based; conditions: in vivo
[10] = AUC(0 to infinity) in ICR mouse at 10 mg/kg, po measured upto 24 hrs by LC-MS/MS analysis; format: ADME, organism-based; design: dose 10 mg/kg, time < 24 hrs, route po; conditions: in vivo
[11] = target: T1, Protein mono-ADP-ribosyltransferase TIPARP (Mus musculus); assay: Inhibition of PARP7 in mouse CT26 cells assessed as increase in IFN-beta levels at 49 to 4000 nmol/L measured after 48 hrs by RT-qPCR analysis; format: cell-based; conditions: dose lower […], dose upper 4000.0 nmol/L
[12] = target: T1, Protein mono-ADP-ribosyltransferase TIPARP (Mus musculus); assay: Inhibition of PARP7 in mouse CT26 cells assessed as increase in STAT1 phosphorylation incubated for 6 hrs in presence of DMXAA by Western blotting analysis; format: cell-based; conditions: dose 0.44-4 µM
[13] = test system: CT26; assay: Antitumor activity against mouse CT26 cells xenografted in BALB/c mouse assessed as tumor growth inhibition at 100 mg/kg, po bid measured for 14 days; format: functional; conditions: CT26, 336 h, time 14 day, read-out: TGI
[14] = target: T2, Protein mono-ADP-ribosyltransferase TIPARP (Homo sapiens) (UniProt Q7Z3E1); assay: Inhibition of human recombinant N-terminal FLAG tagged PARP7 (400 to 657 end residues) at 100 nM incubated for 1 hr by ELISA assay relative to control
T2 sequence (whole entry): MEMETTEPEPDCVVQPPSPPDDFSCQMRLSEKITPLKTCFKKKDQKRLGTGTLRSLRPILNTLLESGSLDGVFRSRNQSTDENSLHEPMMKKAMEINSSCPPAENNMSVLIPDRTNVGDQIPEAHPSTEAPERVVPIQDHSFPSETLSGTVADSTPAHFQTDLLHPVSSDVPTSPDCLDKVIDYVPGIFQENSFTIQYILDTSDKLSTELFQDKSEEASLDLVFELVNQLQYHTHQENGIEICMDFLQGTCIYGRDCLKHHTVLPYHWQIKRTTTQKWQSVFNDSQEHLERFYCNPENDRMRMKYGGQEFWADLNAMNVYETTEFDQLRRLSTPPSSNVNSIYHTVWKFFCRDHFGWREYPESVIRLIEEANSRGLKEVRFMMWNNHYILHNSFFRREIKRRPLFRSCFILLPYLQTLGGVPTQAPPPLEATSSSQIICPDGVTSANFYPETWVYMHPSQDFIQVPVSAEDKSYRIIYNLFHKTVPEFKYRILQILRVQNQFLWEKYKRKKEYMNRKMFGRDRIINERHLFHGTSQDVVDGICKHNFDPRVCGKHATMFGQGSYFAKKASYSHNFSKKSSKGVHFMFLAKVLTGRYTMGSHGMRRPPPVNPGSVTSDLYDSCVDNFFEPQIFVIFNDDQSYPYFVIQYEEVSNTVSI

[15] = test system: CT26; assay: Antitumor activity against mouse CT26 cells implanted in BALB/c mouse assessed as increase in infiltration of CD4 positive CD8 positive T lymphocytes in tumors at 50 mg/kg, po measured after 14 days by flow cytometry (reference value: 6.67%); format: functional; conditions: time 14 day
[16] = target: T3, Protein mono-ADP-ribosyltransferase TIPARP (Homo sapiens, UniProt Q7Z3E1); assay: Inhibition of human recombinant N-terminal FLAG tagged PARP7 (400 to 657 end residues) incubated for 1 hr by ELISA assay
T3 sequence (Q7Z3E1 whole entry): T2 sequence (whole entry)

[17] = test system: CT26; assay: Antitumor activity against mouse CT26 cells xenografted in BALB/c mouse assessed as tumor growth inhibition at 50 mg/kg, po bid measured for 14 days; format: functional; conditions: CT26, 336 h, time 14 day, read-out: TGI
[18] = Initial plasma concentration in ICR mouse at 1 mg/kg, iv measured upto 24 hrs by LC-MS/MS analysis; format: ADME, organism-based
[19] = Toxicity in BALB/c mouse implanted with mouse CT26 cells assessed as change in body weight at 25 to 100 mg/kg, po measured for 14 days; format: organism-based; conditions: in vivo, 336 h, dose 25-100 mg/kg, time 14 day

For `C[C@@H](CN1CC(C(=O)N2CCN(c3ncc(C(F)(F)F)cn3)CC2)C1)Nc1cn[nH]c(=O)c1C(F)(F)F`, the Activity [1] was “Active”, the inhibition [2] was “Active” and the Vd [3] was 3.66 L/kg. For the same molecule, the bioavailability [4] was 95.8%, the Activity [5] was “Dose-Dependent Effect” and the Activity [6] was “Active”. For the same molecule, the Activity [7] was “Non-Toxic”, the Activity [8] was “inactive” and the CL/F [9] was 30.3 mL/min/kg. For the same molecule, the AUC [10] was 5663.5 ng·h/mL, the inhibition [11] was “Active” and the inhibition [12] was “Dose-Dependent Effect”. The inhibition in vivo at 100 mg/kg [13] was 67%, the inhibition [14] was 70.5% and the Activity [15] was 26.6%. The IC50 [16] was 7.6 nM, the inhibition in vivo at 50 mg/kg [17] was 46% and the C0 at 24 h [18] was 504 ng/mL. For the same molecule, the Activity [19] was “Non-Toxic”.
